{
  "source": "paper PMC10340494",
  "about": "“Sweeteners’ Influence on In Vitro α-Glucosidase Inhibitory Activity, Cytotoxicity, Stability and In Vivo Bioavailability of the Anthocyanins from Lingonberry Jams” (Foods, 2023)",
  "origin": "cited, not measured here",
  "key": {"[1]": {"test_system": "maltase", "design": "method as in PMID 18615280"}, "[2]": {"test_system": "sucrase", "design": "method as in PMID 18615280"}},
  "data": [
    {"smiles": "OC[C@H]1O[C@@H](Oc2cc3c(O)cc(O)cc3[o+]c2-c2ccc(O)c(O)c2)[C@H](O)[C@@H](O)[C@H]1O", "note": "[cyanidin-3-galactoside]", "values": [
      {"measurement": "Inhibition of maltase", "setting": "[1]", "value": 35, "unit": "%"},
      {"measurement": "Inhibition of sucrase", "setting": "[2]", "value": 64, "unit": "%"}
    ]}
  ]
}
